“Also recorded” adds a separate entry of the source.
Assays:
[1] = tested on: Tomato seeds of hybrid tomato var. Royal Mounty; assay: In vitro tomato seedling root growth bioassay (agar medium); type: in vivo; settings: for tomato seedling root length, compared to LCO: 22° C., FIG. 5
Description: Tomato seeds of hybrid tomato var. Royal Mounty were surface sterilized with 10% bleach solution for 10 minutes followed by 3 rinses with sterilized distilled water. Seeds were then dried in a laminar air flow hood for 3 hours. Seeds were then placed in petri-dishes on solidified agar medium containing various concentrations of different sources of the LCO illustrated in FIG. 1b (manufactured by Darmstadt, Germany and Grenoble, France) (also referred to in the examples as the “soybean LCO”) and the inventive CO illustrated in FIG. 2a (also referred to in the examples as the “pea CO” or “CO-V”). Seedling roots were measured by a hand ruler and root fresh weights were taken in a micro balance at day 7. Growth study was done in a growth chamber at 22° C.

Cotton plants [2] = assay: Cotton foliar experiment (greenhouse); type: in vivo; settings: sprayed at V4 stage with 10^−8 M; grown up to 4 weeks; FIG. 9
From the text: Cotton seeds were planted and grown to V4 stage (4 leaved stages) and then were sprayed with 10^−8 M of the LCO illustrated in FIG. 2b (also referred to in the examples as the “Pea LCO”) and the pea CO and then left to grow up to 4 weeks with occasional watering with Hoagland solution. Control plants were sprayed with water.

[3] = tested on: Hybrid corn seeds (92L90); assay: Corn seed treatment (greenhouse, two trials); type: in vivo; settings: 3 fl oz/100 lbs of seed; for dry weight increase over LCO: 10^-8 M
Description: Two seed treatment experiments using only Pea LCO, Pea CO and the CO mixtures obtained from chitosan by enzymatic process (structurally distinct from the Pea CO, and also referred to in the examples as the “China CO”) were performed in greenhouse. Hybrid corn seeds (92L90, Peterson Farm, USA) were treated with treatment solution (10^-8 M) at the rate of 3 fl oz/100 lbs of seed. Seeds were planted in plastic pots containing 1:1 Sand:Perlite mixture. Seeds were allowed to grow for about 3-4 weeks and then they were harvested and their dry weight measured.

[4] = tested on: Siratro (Macroptelium atropurpureum) root segments; assay: Root hair deformation bioassay, Siratro; settings: 4 hours in the dark, FIG. 14
Description: (§1) Siratro (Macroptelium atropurpureum) seeds were germinated on moist filter paper in petriplates. When seedlings roots are about 1-inches long, they are severed from the seedlings and treated with 2 ml of 10^−8M treatment solutions in test tubes for 4 hours in the dark. After treatment time is over the solutions are dyed with Congo Red for 10 minutes. After that root segments are observed under a compound microscope to count the number of deformed root hairs in the most sensitive zone of the root segment. Root hair deformation bioassay was also performed using Red Clover in a similar fashion like Siratro above and only visual observation was made and recorded in text form.

Red Clover root hairs = assay: Root hair deformation bioassay, Red Clover; settings: compared to LCO
Description: as §1

[5] = tested on: wheat seeds (spring wheat); assay: Wheat seed germination and root length in petriplates (Example 8); type: in vivo; settings: 5 days after plating; FIG. 20
Description: Corn and wheat seeds were plated in petriplates containing 5 ml of treatment solution on a filter paper. Corn seeds were placed on moist filter paper for germination. Similarly, wheat seeds (spring wheat) were placed in petriplates. […] Roots were harvested and their length measured by WinRhizo system.

Green Mung seeds = assay: Seed germination in multiple crops: Green Mung; type: in vivo; settings: 24 h, dark, 22° C., FIG. 23
Description: (§2) Similar to the seed germination experiment mentioned above, seeds of different crops were placed on moist filter paper in petriplates containing 5 ml liquid in each. Petriplates with seeds were then kept in the dark at 22° C.

Lab Lab seeds = assay: Seed germination in multiple crops: Lab Lab; type: in vivo; settings: 30 h, dark, 22° C., FIG. 23
Description: as §2

[6] = tested on: Green Mung, Lab Lab, Red Lentil and Red Clover seeds; assay: Seed germination in multiple crops, overall; type: in vivo; settings: four crops; dark, 22° C.; FIG. 23
Description: as §2

[7] = tested on: tomato Var. Royal Mounty seeds; assay: Tomato seedling root growth in petriplates (Example 11); type: in vivo; settings: 22° C.; 5 days in dark; FIG. 24
Description: In petriplate seed germination process, tomato Var. Royal Mounty seeds ware placed on moist filter paper soaked with 5 ml treatment solution. At 22° C. and after 5 days in dark, tomato seedling roots were measured for growth by WinRhizo system.

[8] = tested on: Soybean seeds (Pioneer 9oM80); assay: Soybean seed treatment, radicle length; type: in vivo; settings: after 48 hours, FIG. 25
Description: Soybean seeds (Pioneer 9oM80) were plated in petriplates on moist germination paper soaked with 5 ml of treatment solution containing either water or Soybean LCO, Pea CO and CO plus fatty acids. Seedling radicles were isolated after 48 hours and measured for their length.

Corn seeds = assay: Corn seed application (greenhouse); type: in vivo; settings: seed treatment; CO 10^−8 M, LCO 10^−8 M alone or LCO 10^−9 with CO 10^−8; harvested 10 days after planting; FIG. 28
Description: Corn seeds were treated with various combinations of Pea CO (10^−8 M) and Pea LCO (10^−8, 10^−9 M). Seeds were planted in greenhouse plastic pots containing 1:1 sand:perlite mixture. Seedlings were harvested 10 days after planting, washed clean and then dried in an oven at 60 C for 48 hr.

Cotton plants [9] = assay: Cotton foliar application with micronutrients (greenhouse); type: in vivo; settings: foliar spray Pea CO 10^−8 M, 4 wks after treatment, compared to control
Description: Cotton plants were grown from seeds in greenhouse plastic pots containing sand:perlite in a 1:1 mixture. When seedlings were at the V-stage, they were foliar-sprayed with Pea CO (10^−8 M) and CO plus micronutrients (Ca-pantothenate and boric acid), each in minute amounts. Plants were harvested 4 wks after treatment. Before harvest, leaf greenness was measured by SPAD chlorophyll meter.

corn [10] = assay: Corn field trials, foliar application, grain yield; type: in vivo
corn [11] = assay: Corn field trials, seed application, grain yield; type: in vivo

## CC(=O)NC1C(O)OC(CO)C(OC2OC(CO)C(OC3OC(CO)C(OC4OC(CO)C(OC5OC(CO)C(O)C(O)C5N)C(O)C4NC(C)=O)C(O)C3NC(C)=O)C(O)C2NC(C)=O)C1O (stereo not shown) [Pea CO]
[1]; FIGS. 7 and 8
  average root growth from all 3 concentrations, compared to LCOs: significantly better than LCOs
[1]; all three levels of concentrations (10^−7, 10^−8 and 10^−9 M), day 7, FIG. 6
  seedling root fresh weight, compared to LCO: outperformed LCO
[1]; at 10^−7M and 10^−9M, day 7
  tomato seedling root length, compared to LCO: better
[1]; at 10^−8M, day 7
  tomato seedling root length, compared to LCO: equal
[1]; day 7, control water
  root fresh weight, compared to control seedlings: significantly better than control seedlings
  root length, compared to control seedlings: significantly better than control seedlings
Cotton plants [2]
  more plant fresh weight increase over LCO: 1.14%
  plant fresh weights over control: significantly increased
[3]; first trial, FIG. 10
  dry weight increase over LCO: 11.84%
[3]; second trial, FIG. 11
  dry weight increase over LCO: 12.63%
[3]; treatment solution 10^-8 M, 3-4 weeks, both experiments
  shoot, root and total biomass increase over LCO: greater
[4]; 10^−8M treatment solutions
  root hair deformation: induced root hair deformation
[4]; 10^−8M
  root hair deformation compared to LCO or CO: equal to LCO
Red Clover root hairs
  root hair deformation pattern (visual observation): much better and prominent; also recorded: best root hair deformer
[5]
  increase in root length in wheat: not statistically significant but consistently greater
  wheat root length, CO compared to LCO: outperformed LCO
Green Mung seeds
  seed germination: better germination
Lab Lab seeds
  seed germination: better germination
[6]
  overall seed germination compared to Pea LCO: better than Pea LCO
[7]
  average seedling root length compared to LCO: better than LCO but it was not significantly better
  tomato seedling root length as compared to water control: increased root length
[8]
  seedling radicle length: less effective
Corn seeds
  corn seedling dry weight: increased corn seedling dry weight
Cotton plants [9]; FIG. 30
  leaf greenness (SPAD chlorophyll meter): significantly increased
Cotton plants [9]; FIG. 31
  average dry plant weight: numerical increase
Corn [10]
  YIELD, Response Increase: 4.8 % of Control
Corn [10]; CO minus LCO
  CO mean yield better than foliar LCO: 5.0 bu/A
  higher yield increase than foliar LCO: 2.6%
  trials with a positive response, better than foliar LCO: 18.8%
Corn [10]; CO versus LCO
  yield enhancement as a foliar treatment (conclusion): at least twice better
Corn [10]; four ounces per acre with glyphosate
  YIELD, Mean (N = 16): 201.8 bu/A
Corn [10]; over Control
  YIELD, Response: 9.2 bu/A
Corn [10]; percent of the 16 trials
  Positive Yield Response: 93.8%
Corn [11]
  YIELD, Response Increase: 3.6 % of Control
Corn [11]; 1×10^−8 molar, 1 μg/acre, 3 fl oz per 50 pounds of seed
  YIELD, Mean (N = 10): 188.0 bu/A
Corn [11]; amongst the ten trials
  less positive yield responses than LCO: 10.0%
Corn [11]; less
  CO mean yield less than LCO: 4.6 bu/A
  less yield increase above the Control than LCO: 2.5%
Corn [11]; over Control
  YIELD, Response: 6.5 bu/A
Corn [11]; percent of the ten trials
  Positive Yield Response: 80.0%
